The results in this text go back to patent US10556892B2, “Piperazinyl methanone NAAA inhibitors” (priority 2016, dated 2020).

Converted amounts (≈) assume the structure as drawn.

Data set [1] deals with h-AC (Homo sapiens (Human), UniProt Q13510). Description: biochemical. Conditions: read-out: h-AC inh (%) 30 μM.
Data set [2] concerns h-AC.
A short description of data set [3]: In vitro metabolic stability, mouse liver microsomes. It is filed as in vitro ADME. On the set-up: dose or concentration left out as unconfirmed. Conditions: pH 7.4, read-out: m-LM stab. t1/2. In general terms: Liver microsomes are vesicles of endoplasmic reticulum, rich in cytochrome P450 enzymes.
Experimental: In vitro metabolic stability. Microsomes stability experiments. In vitro incubation with mouse microsomes (NADPH and UDPG system). […] At time zero, cofactors were added. […] The mixture was kept at 37° C. under shaking. Aliquots (50 mL) were taken at various time points and crashed with 0.15 mL of CH3CN spiked with 500 nM warfarin (internal standard). Reference incubation, with microsomes but without cofactors, was kept at 37° C. and sampled at the end of the time course. After vortexing and centrifugation, 3 mL of supernatant were analyzed by LCMS/MS and detected by multiple reaction monitoring (MRM).
Data set [4] can be described thus: Aqueous kinetic solubility in PBS pH 7.4. It is filed as physicochemical. Conditions: phosphate-buffered saline (PBS) pH 7.4, 25 °C, pH 7.4, aqueous buffer, kinetic from dmso stock; Table 9; read-out: Aq. Skin.
A short description of another data set: Plasma stability. It is filed as in vitro ADME. More on the design: dose or concentration left out as unconfirmed. Conditions: mouse plasma; read-out: m-plasma stab. t1/2.

Turning to `CCS(=O)(=O)c1ccccc1C(=O)N1CCN(c2nc3c(F)cc(F)cc3s2)CC1` [Cmpd 34], the inhibition at 30 µM at h-AC [1] was 4%. Moreover, the “h-AC inh (%) 30 μM” value in the data set with h-AC [2] was found to be 17%.
Regarding `CCS(=O)(=O)c1ccccc1C(=O)N1CCN(c2nc3ccc(F)c(F)c3s2)CC1` [Cmpd 35], the inhibition at 30 µM on h-AC [1] amounted to 0%. Moreover, the half-life in data set [3] is more than 60 min; in the data set “Plasma stability”, more than 120 min. The “h-AC inh (%) 30 μM” value in the data set with h-AC [2] is listed as 12%. In addition, in data set [4], the solubility kinetic at 24 h is 7 µM (≈ 3.16 µg/mL).
Take `CCS(=O)(=O)c1ccccc1C(=O)N1CCN(c2nc3ccccc3o2)CC1` [Cmpd 6]: the inhibition at 30 µM at h-AC [1] was 0%. Besides, the half-life in data set [3] was 27 min; in “Plasma stability” it was more than 120 min. The “h-AC inh (%) 30 μM” value in the data set on h-AC [2] is on record as 64%. Besides, the solubility kinetic at 24 h in data set [4] was more than 250 µM.
